Source: patent US20160376659A1, “Breast Cancer Biomarker” (The University of Manchester, priority 2015, published 2016)

What was measured:
[1] = test system: Notch target genes HEY1 and HES1; experiment: HEY1 and HES1 expression by real-time PCR in PDX tumors treated in vivo; design: species or system mice; details: PDX tumors treated in vivo 2 weeks
Protocol: Tamoxifen citrate (Sigma, T9262, 10 mg/kg/day) and RO4929097 (Cellagen Technology, 3 mg/kg/day) were administered by oral gavage (0.1 ml/dose) on a five day from seven basis (weekends excluded) for fourteen days. Tamoxifen citrate and RO4929097 were prepared in 1% carboxymethylcellulose (Sigma, C9481) dissolved in distilled water. Fulvestrant (kindly provided by Astrazeneca, 200 mg/kg/week) was administered by subcutaneous injection (0.1 ml/dose) on a weekly basis for fourteen days. The HBC×22 and HBC×34 tamoxifen-resistant PDXs have been established by our collaborators in the Curie Institute (Cottu el al, 2014) and were treated for fourteen days in the presence or absence of the gamma-secretase inhibitor RO4929097 (10 mg/kg/day, oral gavage). […]
Total RNA was extracted using the RNeasy Plus Mini Kit (QIAGEN, 74104) and the concentration and purity determined using an ND-1000 spectrophotometer (NanoDrop Technologies). […] Quantitative real-time PCR reactions were set up in triplicate in 384-well plates and performed on the 7900 PCR machine (Applied Biosystems) using TaqMan® Universal PCR Master Mix (Applied Biosystems) and probes from Universal Probe Library (Roche). […] The expression levels were calculated using the ΔΔCt method and normalised to the housekeeping genes 36B4 and GAPDH. […]

[2] = test system: HBC×22 and HBC×34 tamoxifen-resistant PDXs; experiment: BCSC activity (MFE, ALDH-positive cells) in tamoxifen-resistant PDXs treated in vivo; design: species or system mice; details: RO4929097 10 mg/kg/day oral gavage, 14 days
Protocol: Fulvestrant (kindly provided by Astrazeneca, 200 mg/kg/week) was administered by subcutaneous injection (0.1 ml/dose) on a weekly basis for fourteen days. […] Xenografts were collected in ice cold DMEM media for live cell assays, histological analysis and RNA and protein extraction. Patient-derived xenograft single cell suspension was obtained using a collagenase-hyaluronidase mixture for digestion (Stem Cell Technologies). […] Primary mammospheres were dissociated and replated in secondary mammosphere suspension culture for a further 7-9 days to measure self-renewal. Patient-derived xenograft cells were cultured for 7-10 days. For cell lines, cells were pre-treated in adherence and then cultured for 5 days in mammosphere culture. Mammosphere formation efficiency (MFE) was calculated by dividing the number of mammospheres formed (≧50 μm) by the original number of single cells seeded (500 cells/cm^2 for primary cells and 200 cells/cm^2 for cell lines) and is expressed as fold change normalised to control or as the mean percentage of MFE (Shaw et al., 2012). Dissociated single cells were suspended in Aldefluor assay buffer containing an ALDH substrate, bodipyaminoacetaldehyde (BAAA) at […], and incubated for 45 min at 37° C. […] Data were acquired on a LSR II (BD) flow cytometer and analysed using the BD FACSDiva™ software.

[3] = test system: NOTCH4 intracellular domain; experiment: NOTCH4 intracellular domain Western Blot in MCF-7 endocrine-resistant cells; type: cell-based, human; details: endocrine-resistant models; 72 h
Protocol: MCF7, T47D and ZR-75-1 cell lines were purchased from American Tissue Culture Collection (ATCC) and cultured in DMEM/F-12, GlutaMAX (Gibco) with 10% FBS (Gibco). […] MCF7 resistant cell lines were authenticated by comparative karyotyping to ATCC-derived MCF7. Proteins were extracted with Protein Lysis Buffer (25 mM HEPES, 50 mM NaCl, 30 mM NaPP, 50 mM NaF, 1% Triton-X-100, 10% Glycerol, 5 mM EDTA, Protease Inhibitor cocktail, 1 μM PMSF). Lysates were placed on a rotator for 1 hour at 4° C., then were centrifuged at 10000 g at 4° C. for 10 min, and supernatants were collected. Protein concentrations were assessed using the BCA Protein Assay Kit (Thermo Scientific, 23225). Proteins were separated on a 10% gel (Biorad, 456-1033) by SDS-PAGE at 200V for 1 hour, and then were transferred on polyvinylidene difluoride (PVDF) membranes (BioRad, 170-4157) at 25 V/1,300 mA for 15 min using a Trans Blot Turbo (BioRad, 170-4155). Membranes were blocked in a solution of PBS containing 0.05% Tween-20 and 5% skimmed milk (Marvel) for 1 h at room temperature and primary antibodies were incubated overnight at 4° C. […]

CD44^+CD24^low+ BCSCs = details: Azzam et al., 2013; cited from earlier work

Compound | HEY1 and HES1 expression [1] | enrichment of BCSCs [2] | levels of the active NOTCH4 intracellular domain [3] | mammosphere and tumor formation (CD44^+CD24^low+ BCSCs)
C[C@]12CC[C@@H]3c4ccc(O)cc4C[C@@H](CCCCCCCCC[S+]([O-])CCCC(F)(F)C(F)(F)F)[C@H]3[C@@H]1CC[C@@H]2O (some centres unmarked) [fulvestrant] | increased | – | – | –
CC/C(=C(\c1ccccc1)c1ccc(OCCN(C)C)cc1)c1ccccc1 [tamoxifen, (Z)-2-[4-(1,2-diphenylbut-1-enyl)phenoxy]-N,N-dimethylethanamine] | increased | – | – | –
CC(C)(C(=O)NCC(F)(F)C(F)(F)F)C(=O)N[C@@H]1C(=O)Nc2ccccc2-c2ccccc21 [RO4929097] | – | significantly reduced | effective in reducing | reduce
